Values of other authors in patent publication US11324821B2, “Triterpene saponin analogues” (ADJUVANCE TECHNOLOGIES, INC., priority 2017, dated 2022).

Conditions: cited from earlier work

In the case of QS-21, the “tolerated / maximum dose” value (cancer patients, above it local erythema and systemic flu-like symptoms) is given as 100 to 150 µg and the maximum dose (in vivo) is given as 50 µg.
